In paper PMC11897524 (Frontiers in Pharmacology, 2025):

Experiments:
Assay in all cases: SelectScreen Z′-LYTE kinase assay
Assay type in all cases: biochemical
[1] = biological target: PDGFRB (Homo sapiens, UniProt P09619)
Experimental: (§1) The kinase selectivity profile of BST-4 was performed by the SelectScreen kinase profiling service (Thermo Fisher Scientific). Kinase selectivity assay was performed using Z′-LYTE ™ screening protocol kit. Briefly, the test compounds were screened in 1% DMSO (final). For 10-point titrations, perform a 3-fold dilution starting at a starting concentration of 50 µM. Then 2.5 µL 4× test compound, 2.4 µL kinase buffer, 5 µL 2× kinase mixture and 2.5 µL 4× ATP solution was added in black 384-well plate. After shaking for 30 s, the plates were incubated for 60 min at room temperature. Add developing reagent solution and shake the plate for 30 s, then incubate for 1 h at room temperature. The Fluorescence intensity per well was read using a fluorescence plate reader. SelectScreen® Kinase Profiling Service used XLfit from IDBS. The dose response curve was curve fit to model number 205 (sigmoidal dose-response model) and inhibition rates were calculated. 50% inhibition was used as a activity threshold. IC50 values were calculated based on curve fitting.

[2] = biological target: DDR2 (Homo sapiens, UniProt Q16832)
Experimental: as §1

[3] = biological target: LYN (Homo sapiens, UniProt P07948)
Experimental: as §1

[4] = biological target: FGFR4 (Homo sapiens, UniProt P22455)
Experimental: as §1

[5] = biological target: PTK2 (Homo sapiens, UniProt Q05397)
Experimental: as §1

[6] = biological target: ABL2 (Homo sapiens, UniProt P42684)
Experimental: as §1

[7] = biological target: FGFR2 (Homo sapiens, UniProt P21802)
Experimental: as §1

[8] = biological target: MET (Homo sapiens, UniProt P08581)
Experimental: as §1

[9] = biological target: EPHA1 (Homo sapiens, UniProt P21709)
Experimental: as §1

[10] = biological target: TEC (Homo sapiens, UniProt P42680)
Experimental: as §1

[11] = biological target: BLK (Homo sapiens, UniProt P51451)
Experimental: as §1

[12] = biological target: EPHB4 (Homo sapiens, UniProt P54760)
Experimental: as §1

[13] = biological target: EGFR (Homo sapiens, UniProt P00533)
Experimental: as §1

[14] = biological target: PTK2B (Homo sapiens, UniProt Q14289)
Experimental: as §1

[15] = biological target: FES (Homo sapiens, UniProt P07332)
Experimental: as §1

[16] = biological target: HCK (Homo sapiens, UniProt P08631)
Experimental: as §1

[17] = biological target: FLT3 (Homo sapiens, UniProt P36888)
Experimental: as §1

[18] = biological target: JAK1 (Homo sapiens, UniProt P23458)
Experimental: as §1

[19] = biological target: EPHA3 (Homo sapiens, UniProt P29320)
Experimental: as §1

[20] = biological target: FRK (Homo sapiens, UniProt P42685)
Experimental: as §1

[21] = biological target: FGFR1 (Homo sapiens, UniProt P11362)
Experimental: as §1

[22] = biological target: PTK6 (Homo sapiens, UniProt Q13882)
Experimental: as §1

[23] = biological target: FLT4 (Homo sapiens, UniProt P35916)
Experimental: as §1

[24] = biological target: KIT (Homo sapiens, UniProt P10721)
Experimental: as §1

[25] = biological target: PDGFRA (Homo sapiens, UniProt P16234)
Experimental: as §1

[26] = biological target: YES1 (Homo sapiens, UniProt P07947)
Experimental: as §1

[27] = biological target: SRC (Homo sapiens, UniProt P12931)
Experimental: as §1

[28] = biological target: ZAP70 (Homo sapiens, UniProt P43403)
Experimental: as §1

[29] = biological target: ITK (Homo sapiens, UniProt Q08881)
Experimental: as §1

[30] = biological target: FGR (Homo sapiens, UniProt P09769)
Experimental: as §1

[31] = biological target: ERBB4 (Homo sapiens, UniProt Q15303)
Experimental: as §1

Chain of FGR (P09769 whole entry): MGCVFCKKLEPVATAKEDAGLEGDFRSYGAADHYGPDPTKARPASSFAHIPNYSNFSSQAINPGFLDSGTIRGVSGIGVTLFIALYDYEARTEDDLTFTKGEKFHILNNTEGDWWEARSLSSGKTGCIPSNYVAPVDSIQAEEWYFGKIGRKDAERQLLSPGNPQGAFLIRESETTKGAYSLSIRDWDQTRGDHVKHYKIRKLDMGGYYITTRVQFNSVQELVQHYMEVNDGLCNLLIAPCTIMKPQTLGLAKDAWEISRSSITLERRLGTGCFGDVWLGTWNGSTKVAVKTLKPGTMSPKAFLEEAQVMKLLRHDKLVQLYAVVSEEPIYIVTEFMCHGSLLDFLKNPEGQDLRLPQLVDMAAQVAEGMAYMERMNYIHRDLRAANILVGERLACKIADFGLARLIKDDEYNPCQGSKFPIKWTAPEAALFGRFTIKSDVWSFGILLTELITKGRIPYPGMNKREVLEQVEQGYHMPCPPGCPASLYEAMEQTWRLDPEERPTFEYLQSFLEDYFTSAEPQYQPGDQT
Chain of EPHB4 (P54760 16-987): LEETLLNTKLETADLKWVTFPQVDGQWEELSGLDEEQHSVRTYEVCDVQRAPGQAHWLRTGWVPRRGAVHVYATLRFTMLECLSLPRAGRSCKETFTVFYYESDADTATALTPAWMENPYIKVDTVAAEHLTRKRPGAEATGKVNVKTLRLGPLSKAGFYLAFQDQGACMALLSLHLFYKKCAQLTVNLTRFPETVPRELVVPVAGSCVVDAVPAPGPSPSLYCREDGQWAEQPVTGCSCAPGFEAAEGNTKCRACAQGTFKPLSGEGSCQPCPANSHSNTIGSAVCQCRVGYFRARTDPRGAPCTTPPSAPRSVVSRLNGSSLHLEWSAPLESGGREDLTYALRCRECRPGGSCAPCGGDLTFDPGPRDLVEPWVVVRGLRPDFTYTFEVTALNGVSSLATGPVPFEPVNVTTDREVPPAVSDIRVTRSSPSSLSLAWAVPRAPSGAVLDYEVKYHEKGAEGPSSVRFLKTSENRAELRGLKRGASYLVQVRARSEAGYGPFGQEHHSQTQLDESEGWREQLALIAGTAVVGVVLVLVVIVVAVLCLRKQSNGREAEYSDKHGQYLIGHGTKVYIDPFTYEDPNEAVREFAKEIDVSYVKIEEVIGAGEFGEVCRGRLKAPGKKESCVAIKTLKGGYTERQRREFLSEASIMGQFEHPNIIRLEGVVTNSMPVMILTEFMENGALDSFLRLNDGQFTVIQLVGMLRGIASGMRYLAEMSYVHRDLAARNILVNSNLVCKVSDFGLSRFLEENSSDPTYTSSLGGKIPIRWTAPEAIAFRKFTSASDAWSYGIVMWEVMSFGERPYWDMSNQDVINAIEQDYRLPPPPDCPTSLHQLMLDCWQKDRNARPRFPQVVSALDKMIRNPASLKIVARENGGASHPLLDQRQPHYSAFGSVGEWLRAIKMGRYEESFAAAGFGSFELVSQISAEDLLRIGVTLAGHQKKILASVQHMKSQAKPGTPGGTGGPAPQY
Chain of FES (P07332 whole entry): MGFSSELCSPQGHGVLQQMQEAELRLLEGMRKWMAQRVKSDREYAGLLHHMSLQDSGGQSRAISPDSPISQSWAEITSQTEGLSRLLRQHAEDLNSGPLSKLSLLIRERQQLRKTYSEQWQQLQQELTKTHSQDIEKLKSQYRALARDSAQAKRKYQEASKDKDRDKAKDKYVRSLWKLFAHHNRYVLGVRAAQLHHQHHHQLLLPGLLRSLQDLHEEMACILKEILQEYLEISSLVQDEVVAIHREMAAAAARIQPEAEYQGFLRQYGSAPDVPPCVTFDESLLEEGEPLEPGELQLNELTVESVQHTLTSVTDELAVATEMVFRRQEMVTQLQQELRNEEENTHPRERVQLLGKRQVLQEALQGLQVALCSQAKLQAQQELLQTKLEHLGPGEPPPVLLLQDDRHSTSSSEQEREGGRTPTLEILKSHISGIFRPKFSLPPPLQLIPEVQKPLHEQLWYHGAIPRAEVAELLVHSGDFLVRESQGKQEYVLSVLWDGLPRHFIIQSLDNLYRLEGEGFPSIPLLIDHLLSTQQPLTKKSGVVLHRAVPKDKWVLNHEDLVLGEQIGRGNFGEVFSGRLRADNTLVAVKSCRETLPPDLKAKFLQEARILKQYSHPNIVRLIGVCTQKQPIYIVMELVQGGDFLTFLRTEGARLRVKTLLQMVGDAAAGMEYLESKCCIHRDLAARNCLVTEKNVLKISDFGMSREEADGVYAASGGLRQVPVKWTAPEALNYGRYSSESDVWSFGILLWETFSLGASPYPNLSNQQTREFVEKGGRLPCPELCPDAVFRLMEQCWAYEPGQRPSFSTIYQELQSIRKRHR
Chain of FLT4 (P35916 25-1363): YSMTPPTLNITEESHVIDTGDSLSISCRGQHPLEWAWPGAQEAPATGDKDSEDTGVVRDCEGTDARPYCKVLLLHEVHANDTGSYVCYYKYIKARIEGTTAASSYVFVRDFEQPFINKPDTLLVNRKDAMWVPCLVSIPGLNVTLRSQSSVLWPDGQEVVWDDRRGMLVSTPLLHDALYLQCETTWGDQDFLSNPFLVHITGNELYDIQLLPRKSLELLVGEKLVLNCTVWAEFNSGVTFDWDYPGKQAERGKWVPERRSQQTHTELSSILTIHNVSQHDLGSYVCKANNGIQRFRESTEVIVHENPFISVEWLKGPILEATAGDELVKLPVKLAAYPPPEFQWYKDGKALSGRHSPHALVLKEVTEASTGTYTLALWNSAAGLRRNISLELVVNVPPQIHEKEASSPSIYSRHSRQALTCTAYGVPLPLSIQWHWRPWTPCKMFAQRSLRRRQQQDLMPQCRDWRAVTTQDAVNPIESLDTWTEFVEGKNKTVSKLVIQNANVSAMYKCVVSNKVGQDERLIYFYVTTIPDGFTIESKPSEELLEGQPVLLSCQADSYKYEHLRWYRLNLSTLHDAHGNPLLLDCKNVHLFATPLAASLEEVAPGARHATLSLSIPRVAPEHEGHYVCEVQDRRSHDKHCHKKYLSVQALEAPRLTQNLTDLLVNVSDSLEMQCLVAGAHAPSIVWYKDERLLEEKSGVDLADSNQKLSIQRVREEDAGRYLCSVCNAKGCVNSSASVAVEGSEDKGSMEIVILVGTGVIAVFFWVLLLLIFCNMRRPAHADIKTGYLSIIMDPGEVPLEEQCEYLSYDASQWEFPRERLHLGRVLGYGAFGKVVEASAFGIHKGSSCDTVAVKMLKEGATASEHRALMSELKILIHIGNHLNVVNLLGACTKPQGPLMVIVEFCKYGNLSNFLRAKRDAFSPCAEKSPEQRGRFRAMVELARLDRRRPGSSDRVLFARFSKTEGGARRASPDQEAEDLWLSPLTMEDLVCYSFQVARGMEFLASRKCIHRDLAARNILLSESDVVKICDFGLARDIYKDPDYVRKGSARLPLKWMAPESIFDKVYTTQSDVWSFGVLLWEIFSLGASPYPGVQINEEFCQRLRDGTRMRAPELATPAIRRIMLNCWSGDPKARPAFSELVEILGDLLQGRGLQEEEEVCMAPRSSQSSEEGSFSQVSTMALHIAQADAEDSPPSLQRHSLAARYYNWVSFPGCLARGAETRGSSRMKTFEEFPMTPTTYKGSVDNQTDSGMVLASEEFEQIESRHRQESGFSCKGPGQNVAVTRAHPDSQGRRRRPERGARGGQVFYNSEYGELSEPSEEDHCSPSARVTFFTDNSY
Chain of TEC (P42680 whole entry): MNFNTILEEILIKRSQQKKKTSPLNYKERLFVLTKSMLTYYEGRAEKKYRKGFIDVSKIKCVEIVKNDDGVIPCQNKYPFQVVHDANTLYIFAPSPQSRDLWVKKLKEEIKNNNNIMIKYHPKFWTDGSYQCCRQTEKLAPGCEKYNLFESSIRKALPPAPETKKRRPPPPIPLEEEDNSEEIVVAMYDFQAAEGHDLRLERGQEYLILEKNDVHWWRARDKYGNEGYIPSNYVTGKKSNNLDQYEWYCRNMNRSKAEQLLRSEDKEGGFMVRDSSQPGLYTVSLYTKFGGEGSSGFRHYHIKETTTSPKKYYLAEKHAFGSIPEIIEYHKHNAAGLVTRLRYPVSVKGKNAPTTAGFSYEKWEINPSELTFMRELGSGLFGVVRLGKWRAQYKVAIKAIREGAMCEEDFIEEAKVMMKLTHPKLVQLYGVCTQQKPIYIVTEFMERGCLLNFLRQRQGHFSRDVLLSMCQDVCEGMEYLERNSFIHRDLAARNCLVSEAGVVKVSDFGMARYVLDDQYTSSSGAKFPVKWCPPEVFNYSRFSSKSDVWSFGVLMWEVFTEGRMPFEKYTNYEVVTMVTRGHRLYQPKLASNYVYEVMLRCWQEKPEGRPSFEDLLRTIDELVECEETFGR
Chain of ITK (Q08881 whole entry): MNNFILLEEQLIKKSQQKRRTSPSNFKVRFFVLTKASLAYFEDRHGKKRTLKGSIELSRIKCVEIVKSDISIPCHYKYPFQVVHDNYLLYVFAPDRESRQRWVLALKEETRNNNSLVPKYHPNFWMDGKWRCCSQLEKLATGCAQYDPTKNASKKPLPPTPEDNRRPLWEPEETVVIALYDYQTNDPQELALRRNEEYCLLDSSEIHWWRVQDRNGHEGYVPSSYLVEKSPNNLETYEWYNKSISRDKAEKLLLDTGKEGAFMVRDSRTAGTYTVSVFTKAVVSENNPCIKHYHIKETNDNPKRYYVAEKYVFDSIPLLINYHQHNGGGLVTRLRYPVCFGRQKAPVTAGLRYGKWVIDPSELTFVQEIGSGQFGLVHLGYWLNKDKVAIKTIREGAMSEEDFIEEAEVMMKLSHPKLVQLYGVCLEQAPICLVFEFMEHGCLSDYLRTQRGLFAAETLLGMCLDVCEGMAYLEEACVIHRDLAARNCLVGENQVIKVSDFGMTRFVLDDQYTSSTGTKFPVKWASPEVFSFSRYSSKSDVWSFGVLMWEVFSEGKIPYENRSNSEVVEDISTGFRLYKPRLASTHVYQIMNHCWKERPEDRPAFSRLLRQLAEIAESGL

IC50 [1]: > 10 µM | inhibition at 1 µM [1]: 0.1% | IC50 [2]: > 10 µM | inhibition at 1 µM [2]: 0.7% | IC50 [3]: > 10 µM | inhibition at 1 µM [3]: 1.96% | IC50 [4]: > 10 µM | inhibition at 1 µM [4]: 0.68% | IC50 [5]: > 10 µM | inhibition at 1 µM [5]: 1.48% | IC50 [6]: > 10 µM | inhibition at 1 µM [6]: 0.44% | IC50 [7]: > 10 µM | inhibition at 1 µM [7]: 0.45% | IC50 [8]: > 10 µM | inhibition at 1 µM [8]: 0.68% | IC50 [9]: > 10 µM | inhibition at 1 µM [9]: 0.02% | IC50 [10]: > 10 µM | inhibition at 1 µM [10]: 0.67% | IC50 [11]: > 10 µM | inhibition at 1 µM [11]: 0.54% | IC50 [12]: > 10 µM | inhibition at 1 µM [12]: 0.97% | IC50 [13]: > 10 µM | inhibition at 1 µM [13]: 0.37% | IC50 [14]: > 10 µM | inhibition at 1 µM [14]: 0.73% | IC50 [15]: > 10 µM | inhibition at 1 µM [15]: 0.05% | IC50 [16]: > 10 µM | inhibition at 1 µM [16]: 0.86% | IC50 [17]: > 10 µM | inhibition at 1 µM [17]: 0.52% | IC50 [18]: > 10 µM | inhibition at 1 µM [18]: 1.21% | IC50 [19]: > 10 µM | inhibition at 1 µM [19]: 0.89% | IC50 [20]: > 10 µM | inhibition at 1 µM [20]: 0.95% | IC50 [21]: > 10 µM | inhibition at 1 µM [21]: 0.59% | IC50 [22]: > 10 µM | inhibition at 1 µM [22]: 2.34% | IC50 [23]: > 10 µM | inhibition at 1 µM [23]: 1.82% | IC50 [24]: > 10 µM | inhibition at 1 µM [24]: 0.25% | IC50 [25]: > 10 µM | inhibition at 1 µM [25]: 0.37% | IC50 [26]: > 10 µM | inhibition at 1 µM [26]: 1.22% | IC50 [27]: > 10 µM | inhibition at 1 µM [27]: 3.24% | IC50 [28]: > 10 µM | inhibition at 1 µM [28]: 0.68% | IC50 [29]: > 10 µM | inhibition at 1 µM [29]: 0.75% | IC50 [30]: > 10 µM | inhibition at 1 µM [30]: 0.28% | IC50 [31]: > 10 µM | inhibition at 1 µM [31]: 0.78%
Structure (SMILES): CCS(=O)(=O)Cc1cnc(Oc2c(F)cc(F)cc2OCCCCOc2ccc(/C=C/c3cc(OC)cc(OC)c3)cc2)c(-c2cc(C)c3c(=O)[nH]ccn23)c1 [BST-4]
